Data as given in article PMC2747590 (Chemical biology & drug design, 2009).
Read-outs that look alike come from different tables or passages of the source.

What was measured:
metastasis = details: 50 mg/kg/day; cited from earlier work
in vitro = details: male, Sprague-Dawley, rat, microsomes, pH 7.4
[1] = mice, single intraperitoneal dose at the same dose level (100 mg/kg); cited from earlier work
[2] = 14-day repeated dose toxicity study in mice; details: 5, 10 and 25 mg/kg/day i.p. for 14 days; normal behavior and food consumption
in vivo = details: female, BALB/c, mouse, ip
[3] = mouse, in vivo, ip
[4] = Plasma levels in mice after single intraperitoneal dose; details: female, BALB/c, mouse, in vivo, ip, 100 mg/kg
gelatinases = details: cited from earlier work

Q: For `O=S(=O)(CC1CS1)c1ccc(Oc2ccccc2)cc1` (stereo not drawn) [Compound 1, (4-phenoxyphenylsulfonyl)methylthiirane], which “efficacy in mouse models of metastasis” value (metastasis) is on record?
A: Its value is “has shown efficacy”.

Q: What about the remaining at 0.25 h, 25 μM (in vitro) of the same compound?
A: Its remaining at 0.25 h, 25 μM is 0.5%.

Q: What about the “plasma levels at 1 h” value [1] of the same compound?
A: The value was less than 1 µM.

Q: With `CS(=O)(=O)Oc1ccc(Oc2ccc(S(=O)(=O)CC3CS3)cc2)cc1` (stereo not drawn) [Compound 2, 4-(4-(Thiiranylmethylsulfonyl)phenoxy)-phenyl methanesulfonate] as the compound, how does the “toxicity upon multiple-dose administration” value [2] read?
A: Its value is “No toxicity was observed”.

Q: What about the concentration at 1 h (in vivo; 5 mg/kg/day) of the same compound?
A: The concentration at 1 h was less than 1 µM.

Q: And the concentration at 1 h (in vivo; 10 mg/kg/day)?
A: The concentration at 1 h was less than 1 µM.

Q: What about the concentration at 1 h (in vivo; 25 mg/kg/day) of the same compound?
A: Its concentration at 1 h is 3.2 µM.

Q: And the “Concentration of 2 at 1 h” value ([3]; female, BALB/c, 25 mg/kg/day, 1 h)?
A: The value was 3.2 µM.

Q: And the “Concentration of 2 at 1 h” value ([3]; 5 mg/kg/day)?
A: The value was “LOQ”.

Q: And the “Concentration of 2 at 1 h” value ([3]; 10 mg/kg/day)?
A: Its value is “LOQ”.

Q: And the concentration at 1 h [4]?
A: Its concentration at 1 h is 70.5 µM.

Q: Which “gelatinase inhibitory activity relative to parent 1” value (gelatinases) does the source give for `O=S(=O)(CC1CS1)c1ccc(Oc2ccc(O)cc2)cc1` (stereo not drawn) [p-hydroxy variant] here?
A: Its value is “more active gelatinase inhibitor than the parent 1”.
